Some test systems named below: NCI/ADR-RES; KM12; K562; M14; A498; NCI-H23; DU-145; SF-539; UACC-257; SNB-19; MOLT-4; COLO 205; MDA-N; Hs-578T; SK-MEL-2; SNB-75; HCC 2998; SF-295; TK-10; CAKI-1.
Holding throughout (assay): NCI-60 cell line screen, 48 h

Structures are written as SMILES.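 Growth conditions: 96-well plates. Treatment: test compound, 48 hours, 5 concentrations. Analysis: linear interpolation between bracketing concentrations; unreached endpoints set to highest concentration. GI50 = concentration required for 50% inhibition of growth.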 Activity calls are given as the source filed them. No stated cut-off is given here; in the data, active = GI50 up to about 1.1 µM and inactive = higher.

Regarding `N#Cc1cccc(C2ON=C(c3ccc([N+](=O)[O-])cc3)N2C23CC4CC(CC(C4)C2)C3)c1` (stereo not given), the GI50 in the test with NCI/ADR-RES is > 100 µM (inactive); in the test on KM12, > 100 µM (inactive); in the test with K562 it was > 100 µM (inactive); with M14, 57.8 µM (inactive); in the test with A498, > 100 µM (inactive); with NCI-H23 it was > 100 µM (inactive). Besides, the GI50 is > 100 µM (inactive) in the test with DU-145; > 100 µM (inactive) with SF-539; > 100 µM (inactive) in the test with UACC-257; > 100 µM (inactive) with SNB-19; 6.68 µM (inactive) in the test on MOLT-4; > 100 µM (inactive) in the test on COLO 205. Moreover, the GI50 in the test on MDA-N was > 100 µM (inactive); in the test on Hs-578T, 39.8 µM (inactive); in the test with SK-MEL-2 it was 16.7 µM (inactive); in the test with SNB-75, > 100 µM (inactive); with HCC 2998, > 100 µM (inactive); with SF-295 it was 79.8 µM (inactive). The GI50 with TK-10 was > 100 µM (inactive); in the test with CAKI-1, 11.7 µM (inactive).

Turning to `COc1ccc2c3c([nH]c2c1)[C@H]1C[C@H]2[C@H](C[C@@H](O)[C@H](OC)[C@H]2C(=O)O)CN1CC3`, the GI50 with NCI/ADR-RES, in the test on KM12, in the test with K562, with M14, in the test with A498 and in the test on NCI-H23 was > 100 µM (inactive) throughout. The GI50 with DU-145, in the test on SF-539, in the test on UACC-257, with SNB-19, in the test with MOLT-4 and with COLO 205 was > 100 µM (inactive) in each case. The GI50 in the test with MDA-N was > 100 µM (inactive); in the test with Hs-578T it was 62.8 µM (inactive); in the test on SK-MEL-2, > 100 µM (inactive); in the test with SNB-75 it was > 100 µM (inactive); in the test on HCC 2998, > 100 µM (inactive); in the test on SF-295, > 100 µM (inactive). The GI50 with TK-10 and in the test with CAKI-1 was > 100 µM (inactive) in each case.

`CC1CC(C)[C@H](O)C([C@H](O)CC2CC(=O)N(C)C(=O)C2)C1` (stereo not given in full): the GI50 with NCI/ADR-RES, in the test with KM12, in the test with K562, in the test with M14, in the test on A498 and in the test with NCI-H23 was > 100 µM (inactive) throughout. In addition, the GI50 in the test on DU-145, with SF-539, in the test on UACC-257, in the test on SNB-19, with MOLT-4 and in the test with COLO 205 was > 100 µM (inactive) throughout. Also, the GI50 with MDA-N was > 100 µM (inactive); in the test on Hs-578T it was > 100 µM (inactive); with SK-MEL-2 it was > 100 µM (inactive); in the test on SNB-75 it was 95.1 µM (inactive); with HCC 2998 it was > 100 µM (inactive); with SF-295, 82.4 µM (inactive). The GI50 in the test with TK-10 and in the test with CAKI-1 was > 100 µM (inactive) throughout.

Take `CC(=O)Oc1c(OC(C)C)cc(=O)n2ccsc12`: the GI50 was > 100 µM (inactive) with NCI/ADR-RES; > 100 µM (inactive) in the test on KM12; 42.8 µM (inactive) with K562; > 100 µM (inactive) in the test on M14; > 100 µM (inactive) with A498; > 100 µM (inactive) in the test on NCI-H23. The GI50 was > 100 µM (inactive) with DU-145; > 100 µM (inactive) in the test with SF-539; > 100 µM (inactive) with UACC-257; > 100 µM (inactive) with SNB-19; 43.9 µM (inactive) in the test on MOLT-4; 30.1 µM (inactive) in the test with COLO 205. Besides, the GI50 in the test on MDA-N, with Hs-578T, in the test on SK-MEL-2, with SNB-75, with HCC 2998 and in the test with SF-295 was > 100 µM (inactive) throughout. Besides, the GI50 in the test with TK-10 and in the test with CAKI-1 was > 100 µM (inactive) throughout.

Consider `O=C1c2scnc2-c2nccc3c2c1nc1ccccc13` [KUANONIAMINE A], for which the GI50 is 0.231 µM (active) with NCI/ADR-RES; 1.41 µM (inactive) in the test with KM12; 0.682 µM (active) in the test with K562; 0.564 µM (active) with M14; 1.26 µM (inactive) in the test with A498; 0.223 µM (active) in the test on NCI-H23. Moreover, the GI50 in the test on DU-145 is 1.6 µM (inactive); with SF-539 it was 0.232 µM (active); in the test with UACC-257 it was 0.363 µM (active); with SNB-19, 0.389 µM (active); with MOLT-4, 0.469 µM (active); with COLO 205, 1.31 µM (inactive). Besides, the GI50 was 0.196 µM (active) in the test on MDA-N; 1.8 µM (inactive) in the test on Hs-578T; 1.01 µM (active) in the test on SK-MEL-2; 0.94 µM (active) in the test on SNB-75; 1.15 µM (inactive) in the test on HCC 2998; 1.58 µM (inactive) in the test on SF-295. Besides, the figures for the GI50 with TK-10 and with CAKI-1 were 1.46 µM (inactive) and 1.63 µM (inactive), respectively.

For `O=C(O)c1cnc2cc(OCc3ccccc3)ccc2c1O`, the GI50 in the test on NCI/ADR-RES was 18.1 µM (inactive); with KM12, 18.5 µM (inactive); in the test with K562, 23.6 µM (inactive); in the test with M14 it was 17 µM (inactive); in the test with A498, 17.6 µM (inactive); with NCI-H23, 17.9 µM (inactive). In addition, the GI50 was 18 µM (inactive) in the test with DU-145; 19 µM (inactive) in the test on SF-539; 24 µM (inactive) in the test on UACC-257; 17.7 µM (inactive) in the test with SNB-19; 31.2 µM (inactive) in the test with MOLT-4; 18.2 µM (inactive) in the test with COLO 205. Moreover, the GI50 is 17 µM (inactive) with MDA-N; 20 µM (inactive) in the test on Hs-578T; 18.5 µM (inactive) in the test on SK-MEL-2; 15.7 µM (inactive) with SNB-75; 18.3 µM (inactive) in the test on HCC 2998; 19.3 µM (inactive) with SF-295. Besides, the GI50 in the test on TK-10 is 19.9 µM (inactive); in the test on CAKI-1 it was 20.2 µM (inactive).

Regarding `COc1ccc2c(c1)CC[C@@H]1[C@@H]2CC[C@]2(C)/C(=N/OCCN3CCCCC3)CC[C@@H]12`, the GI50 in the test with NCI/ADR-RES is 10 µM (inactive); in the test with KM12, 3.61 µM (inactive); in the test on K562 it was 2.79 µM (inactive); in the test on M14 it was 2.42 µM (inactive); with A498, 6.38 µM (inactive); in the test with NCI-H23, 11.4 µM (inactive). For the same compound, the GI50 in the test with DU-145 is 3.85 µM (inactive); in the test with SF-539 it was 2.77 µM (inactive); in the test on UACC-257 it was 2.55 µM (inactive); in the test with SNB-19 it was 7.45 µM (inactive); in the test with MOLT-4 it was 3.06 µM (inactive); with COLO 205, 1.55 µM (inactive). Besides, the GI50 in the test on MDA-N was 2.33 µM (inactive); in the test with Hs-578T, 6.76 µM (inactive); with SK-MEL-2 it was 6.07 µM (inactive); with SNB-75 it was 5.69 µM (inactive); in the test with HCC 2998 it was 2.89 µM (inactive); in the test on SF-295, 3.52 µM (inactive). The figures for the GI50 in the test with TK-10 and in the test with CAKI-1 were 4.74 µM (inactive) and 1.94 µM (inactive), respectively.

Consider `CC(C)(C)c1ccc2c(c1)OCc1n[nH]c(n1)COc1cc(C(C)(C)C)ccc1OCCOCCO2`, for which the GI50 with NCI/ADR-RES is 3.41 µM (inactive); in the test with KM12, 3.85 µM (inactive); in the test on K562 it was 4.27 µM (inactive); in the test with M14 it was 2.86 µM (inactive); in the test with A498 it was 5.64 µM (inactive); in the test on NCI-H23 it was 3.09 µM (inactive). Moreover, the GI50 in the test with DU-145 was 6.52 µM (inactive); with SF-539, 7.29 µM (inactive); in the test on UACC-257, 2.65 µM (inactive); in the test with SNB-19 it was 4.23 µM (inactive); in the test on MOLT-4, 3.67 µM (inactive); in the test with COLO 205, 2.31 µM (inactive). In addition, the GI50 was 3.11 µM (inactive) in the test on MDA-N; 2.26 µM (inactive) with Hs-578T; 1.81 µM (inactive) in the test with SK-MEL-2; 5.27 µM (inactive) in the test on SNB-75; 3.72 µM (inactive) with HCC 2998; 3.55 µM (inactive) in the test on SF-295. Moreover, the GI50 is 2.58 µM (inactive) in the test with TK-10 and 4.18 µM (inactive) with CAKI-1.

On to `COC(=O)N/N=C(/c1nc2ccc([N+](=O)[O-])cc2nc1O)C(O)c1ccc(OC)c(OC)c1` (stereo not given), for which the GI50 in the test on NCI/ADR-RES was 92 µM (inactive); in the test on KM12 it was 49.9 µM (inactive); in the test on K562, 55.2 µM (inactive); in the test with M14, > 100 µM (inactive); in the test on A498, > 67.8 µM (inactive); in the test with NCI-H23, > 76.7 µM (inactive). Besides, the GI50 was > 100 µM (inactive) in the test with DU-145; > 100 µM (inactive) with SF-539; 47.1 µM (inactive) in the test on UACC-257; > 100 µM (inactive) in the test on SNB-19; 33 µM (inactive) with MOLT-4; 39.4 µM (inactive) in the test with COLO 205. The GI50 with MDA-N was > 100 µM (inactive); with Hs-578T it was 59 µM (inactive); with SK-MEL-2, > 100 µM (inactive); in the test with SNB-75, > 100 µM (inactive); with HCC 2998 it was > 100 µM (inactive); with SF-295, 98.6 µM (inactive). Besides, the GI50 in the test with TK-10 and with CAKI-1 was > 100 µM (inactive) throughout.

Regarding `C=C(O)c1ccccc1C#Cc1ccccc1C(=O)OC`, the GI50 with NCI/ADR-RES, in the test with KM12, in the test with K562, in the test with M14, in the test on A498 and with NCI-H23 was > 10 µM (inactive) each time. Besides, the GI50 in the test on DU-145, in the test with SF-539, in the test on UACC-257, in the test with SNB-19, in the test on MOLT-4 and in the test on COLO 205 was > 10 µM (inactive) in each case. In addition, the GI50 is > 10 µM (inactive) in the test on MDA-N; > 10 µM (inactive) in the test with Hs-578T; > 10 µM (inactive) in the test with SK-MEL-2; 3.66 µM (inactive) with SNB-75; > 10 µM (inactive) in the test with HCC 2998; > 10 µM (inactive) in the test on SF-295. Moreover, the GI50 in the test on TK-10 and in the test with CAKI-1 was > 10 µM (inactive) each time.

These data come from ChEMBL document CHEMBL1201862, “PubChem BioAssay data set” (2004).
